In ChEMBL document CHEMBL5291721, “A preclinical secondary pharmacology resource illuminates target-adverse drug reaction associations of marketed drugs” (Nat Commun, 2023):

Columns and labels:
[1] = biological target: Voltage-dependent N-type calcium channel subunit alpha-1B (Rattus norvegicus, UniProt Q02294); format: functional
Cannabinoid receptor 1 = Cannabinoid receptor 1 (Homo sapiens, UniProt P21554)
[2] = biological target: T1, Corticotropin-releasing factor receptor 2 (Homo sapiens, UniProt Q13324)
T1 sequence (Q13324 whole entry): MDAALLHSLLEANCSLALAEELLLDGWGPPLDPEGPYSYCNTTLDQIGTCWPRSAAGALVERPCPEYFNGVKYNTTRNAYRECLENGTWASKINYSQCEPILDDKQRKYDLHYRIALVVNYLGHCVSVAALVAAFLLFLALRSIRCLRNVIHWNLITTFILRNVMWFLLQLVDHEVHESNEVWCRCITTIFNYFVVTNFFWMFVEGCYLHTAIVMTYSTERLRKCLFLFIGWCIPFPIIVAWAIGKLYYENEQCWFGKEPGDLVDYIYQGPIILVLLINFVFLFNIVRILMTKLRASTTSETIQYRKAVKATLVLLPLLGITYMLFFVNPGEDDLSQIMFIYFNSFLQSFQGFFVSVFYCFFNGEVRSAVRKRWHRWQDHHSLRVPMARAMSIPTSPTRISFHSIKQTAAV

Estrogen receptor beta = Estrogen receptor beta (Homo sapiens, UniProt Q92731)
Histamine H2 receptor = Histamine H2 receptor (Homo sapiens, UniProt P25021); format: functional, cell-based
Chain of Histamine H2 receptor (P25021 whole entry): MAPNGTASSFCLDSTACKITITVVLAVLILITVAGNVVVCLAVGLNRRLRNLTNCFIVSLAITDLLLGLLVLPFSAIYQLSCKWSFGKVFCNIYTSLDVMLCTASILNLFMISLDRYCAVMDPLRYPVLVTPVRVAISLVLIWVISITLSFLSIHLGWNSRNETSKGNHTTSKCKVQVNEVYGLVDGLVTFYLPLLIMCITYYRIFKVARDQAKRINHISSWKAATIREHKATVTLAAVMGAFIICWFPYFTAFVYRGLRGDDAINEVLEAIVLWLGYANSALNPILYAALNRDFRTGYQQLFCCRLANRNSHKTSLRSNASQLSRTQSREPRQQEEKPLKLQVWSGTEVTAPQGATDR

[3] = biological target: T2, 5-hydroxytryptamine receptor 1A (Homo sapiens, UniProt P08908); format: functional, cell-based
T2 sequence (P08908 whole entry): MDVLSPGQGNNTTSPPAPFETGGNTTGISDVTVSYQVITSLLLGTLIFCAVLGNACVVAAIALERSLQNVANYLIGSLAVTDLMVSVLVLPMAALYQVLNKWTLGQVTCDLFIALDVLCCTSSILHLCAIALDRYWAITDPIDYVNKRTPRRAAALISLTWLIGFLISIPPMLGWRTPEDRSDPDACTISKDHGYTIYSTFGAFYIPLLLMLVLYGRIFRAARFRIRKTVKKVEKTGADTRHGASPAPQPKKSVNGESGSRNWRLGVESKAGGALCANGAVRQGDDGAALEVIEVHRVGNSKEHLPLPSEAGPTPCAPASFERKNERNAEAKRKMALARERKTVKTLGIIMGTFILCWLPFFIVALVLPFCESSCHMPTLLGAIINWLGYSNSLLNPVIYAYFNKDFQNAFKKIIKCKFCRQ

[4] = biological target: Neurotensin receptor type 1 (Homo sapiens, UniProt P30989)
Chain of Neurotensin receptor type 1 (P30989 whole entry): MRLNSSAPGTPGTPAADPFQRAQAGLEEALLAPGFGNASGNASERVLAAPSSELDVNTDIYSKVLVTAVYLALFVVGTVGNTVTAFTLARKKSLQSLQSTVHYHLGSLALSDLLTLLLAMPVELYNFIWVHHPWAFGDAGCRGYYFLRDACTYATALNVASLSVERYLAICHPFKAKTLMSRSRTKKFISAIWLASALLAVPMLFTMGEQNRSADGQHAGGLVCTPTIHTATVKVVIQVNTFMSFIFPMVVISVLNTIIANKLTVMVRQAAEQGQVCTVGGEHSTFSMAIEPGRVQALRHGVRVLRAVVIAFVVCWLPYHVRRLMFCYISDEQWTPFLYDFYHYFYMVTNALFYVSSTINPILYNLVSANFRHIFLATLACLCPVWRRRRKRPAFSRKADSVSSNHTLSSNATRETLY

[5] = biological target: T2, 5-hydroxytryptamine receptor 1A
[6] = biological target: T3, Muscarinic acetylcholine receptor M2 (Homo sapiens, UniProt P08172)
T3 sequence (P08172 whole entry): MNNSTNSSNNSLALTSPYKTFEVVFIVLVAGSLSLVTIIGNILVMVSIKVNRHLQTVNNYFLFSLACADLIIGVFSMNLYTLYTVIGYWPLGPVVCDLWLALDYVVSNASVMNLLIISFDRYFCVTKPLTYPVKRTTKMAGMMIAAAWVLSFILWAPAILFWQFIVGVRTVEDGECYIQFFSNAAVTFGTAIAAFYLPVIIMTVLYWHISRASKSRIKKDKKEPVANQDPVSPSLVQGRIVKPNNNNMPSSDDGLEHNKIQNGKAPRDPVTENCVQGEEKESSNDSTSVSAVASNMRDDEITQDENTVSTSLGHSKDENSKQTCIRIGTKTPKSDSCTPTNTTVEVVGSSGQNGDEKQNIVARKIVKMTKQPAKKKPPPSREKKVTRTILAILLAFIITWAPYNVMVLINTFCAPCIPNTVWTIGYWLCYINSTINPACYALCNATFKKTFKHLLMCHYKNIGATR

Androgen receptor [7] = biological target: T4, Androgen receptor (Rattus norvegicus, UniProt P15207)
T4 sequence (P15207 whole entry): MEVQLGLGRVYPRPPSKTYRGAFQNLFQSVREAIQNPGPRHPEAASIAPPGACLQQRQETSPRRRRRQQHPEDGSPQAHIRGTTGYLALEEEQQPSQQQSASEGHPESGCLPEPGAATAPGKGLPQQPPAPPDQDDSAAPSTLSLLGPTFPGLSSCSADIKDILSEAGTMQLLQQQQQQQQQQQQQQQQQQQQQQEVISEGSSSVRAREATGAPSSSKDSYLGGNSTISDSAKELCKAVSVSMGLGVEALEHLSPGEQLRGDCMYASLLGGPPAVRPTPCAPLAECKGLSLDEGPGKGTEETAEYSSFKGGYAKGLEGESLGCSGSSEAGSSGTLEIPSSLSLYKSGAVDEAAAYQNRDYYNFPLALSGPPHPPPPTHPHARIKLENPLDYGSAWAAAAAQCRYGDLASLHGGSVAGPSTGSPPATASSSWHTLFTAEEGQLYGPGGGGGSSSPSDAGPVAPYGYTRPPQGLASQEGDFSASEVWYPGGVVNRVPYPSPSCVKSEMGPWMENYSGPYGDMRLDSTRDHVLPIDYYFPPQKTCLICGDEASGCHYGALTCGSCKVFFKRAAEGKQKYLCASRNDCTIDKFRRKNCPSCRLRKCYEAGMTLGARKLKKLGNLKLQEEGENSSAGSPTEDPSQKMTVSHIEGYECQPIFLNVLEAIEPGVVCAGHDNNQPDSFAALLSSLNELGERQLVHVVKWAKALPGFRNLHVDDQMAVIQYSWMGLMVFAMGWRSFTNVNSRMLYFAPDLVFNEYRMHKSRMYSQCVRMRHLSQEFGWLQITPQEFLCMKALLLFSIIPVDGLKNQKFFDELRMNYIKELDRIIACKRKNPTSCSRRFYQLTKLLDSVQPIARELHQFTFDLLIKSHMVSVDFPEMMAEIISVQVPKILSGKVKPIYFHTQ

[8] = biological target: 5-hydroxytryptamine receptor 2A (Homo sapiens, UniProt P28223); format: functional, cell-based
Chain of 5-hydroxytryptamine receptor 2A (P28223 whole entry): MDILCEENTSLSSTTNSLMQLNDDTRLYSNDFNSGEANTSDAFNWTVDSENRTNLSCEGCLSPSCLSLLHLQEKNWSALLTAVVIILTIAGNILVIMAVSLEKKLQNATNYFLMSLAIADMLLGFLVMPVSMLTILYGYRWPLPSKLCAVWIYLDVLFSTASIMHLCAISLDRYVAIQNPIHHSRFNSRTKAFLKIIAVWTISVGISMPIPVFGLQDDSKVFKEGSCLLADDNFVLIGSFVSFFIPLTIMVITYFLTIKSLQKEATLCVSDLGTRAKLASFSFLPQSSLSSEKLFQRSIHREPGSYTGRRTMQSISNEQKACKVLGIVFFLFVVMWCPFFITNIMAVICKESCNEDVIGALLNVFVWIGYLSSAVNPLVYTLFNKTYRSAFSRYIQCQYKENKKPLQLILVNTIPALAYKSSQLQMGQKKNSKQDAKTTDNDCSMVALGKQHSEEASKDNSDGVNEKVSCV

Mu-type opioid receptor = Mu-type opioid receptor (Homo sapiens, UniProt P35372); assay: biochemical; format: functional
Chain of Mu-type opioid receptor (P35372 whole entry): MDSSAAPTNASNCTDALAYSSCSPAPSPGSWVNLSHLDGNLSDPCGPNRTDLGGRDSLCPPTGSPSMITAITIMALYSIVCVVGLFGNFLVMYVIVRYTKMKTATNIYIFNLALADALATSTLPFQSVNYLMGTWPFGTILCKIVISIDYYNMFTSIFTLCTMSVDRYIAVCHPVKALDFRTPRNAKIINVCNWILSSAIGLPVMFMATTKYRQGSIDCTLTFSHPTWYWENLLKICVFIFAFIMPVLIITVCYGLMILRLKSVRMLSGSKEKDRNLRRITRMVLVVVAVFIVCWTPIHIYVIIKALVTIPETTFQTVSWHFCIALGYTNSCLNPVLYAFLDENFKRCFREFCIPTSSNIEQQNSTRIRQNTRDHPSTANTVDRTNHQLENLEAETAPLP

[9] = biological target: Beta-2 adrenergic receptor (Homo sapiens, UniProt P07550); format: functional, cell-based
Chain of Beta-2 adrenergic receptor (P07550 whole entry): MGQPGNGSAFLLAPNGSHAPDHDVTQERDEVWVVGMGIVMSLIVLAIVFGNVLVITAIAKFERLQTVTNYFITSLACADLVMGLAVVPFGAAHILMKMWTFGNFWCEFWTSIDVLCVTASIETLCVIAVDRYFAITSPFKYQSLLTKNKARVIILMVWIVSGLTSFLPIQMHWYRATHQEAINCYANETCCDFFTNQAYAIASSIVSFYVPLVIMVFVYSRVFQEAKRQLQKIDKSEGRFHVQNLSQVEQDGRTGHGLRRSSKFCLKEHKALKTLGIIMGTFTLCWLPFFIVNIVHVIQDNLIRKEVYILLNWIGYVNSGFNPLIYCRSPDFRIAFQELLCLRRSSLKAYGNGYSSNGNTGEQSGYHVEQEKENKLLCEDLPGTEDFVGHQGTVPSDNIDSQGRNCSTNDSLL

Androgen receptor [10] = biological target: T4, Androgen receptor; format: functional
Also: assay procedure not described here.

Chain of Voltage-dependent N-type calcium channel subunit alpha-1B (Q02294 whole entry): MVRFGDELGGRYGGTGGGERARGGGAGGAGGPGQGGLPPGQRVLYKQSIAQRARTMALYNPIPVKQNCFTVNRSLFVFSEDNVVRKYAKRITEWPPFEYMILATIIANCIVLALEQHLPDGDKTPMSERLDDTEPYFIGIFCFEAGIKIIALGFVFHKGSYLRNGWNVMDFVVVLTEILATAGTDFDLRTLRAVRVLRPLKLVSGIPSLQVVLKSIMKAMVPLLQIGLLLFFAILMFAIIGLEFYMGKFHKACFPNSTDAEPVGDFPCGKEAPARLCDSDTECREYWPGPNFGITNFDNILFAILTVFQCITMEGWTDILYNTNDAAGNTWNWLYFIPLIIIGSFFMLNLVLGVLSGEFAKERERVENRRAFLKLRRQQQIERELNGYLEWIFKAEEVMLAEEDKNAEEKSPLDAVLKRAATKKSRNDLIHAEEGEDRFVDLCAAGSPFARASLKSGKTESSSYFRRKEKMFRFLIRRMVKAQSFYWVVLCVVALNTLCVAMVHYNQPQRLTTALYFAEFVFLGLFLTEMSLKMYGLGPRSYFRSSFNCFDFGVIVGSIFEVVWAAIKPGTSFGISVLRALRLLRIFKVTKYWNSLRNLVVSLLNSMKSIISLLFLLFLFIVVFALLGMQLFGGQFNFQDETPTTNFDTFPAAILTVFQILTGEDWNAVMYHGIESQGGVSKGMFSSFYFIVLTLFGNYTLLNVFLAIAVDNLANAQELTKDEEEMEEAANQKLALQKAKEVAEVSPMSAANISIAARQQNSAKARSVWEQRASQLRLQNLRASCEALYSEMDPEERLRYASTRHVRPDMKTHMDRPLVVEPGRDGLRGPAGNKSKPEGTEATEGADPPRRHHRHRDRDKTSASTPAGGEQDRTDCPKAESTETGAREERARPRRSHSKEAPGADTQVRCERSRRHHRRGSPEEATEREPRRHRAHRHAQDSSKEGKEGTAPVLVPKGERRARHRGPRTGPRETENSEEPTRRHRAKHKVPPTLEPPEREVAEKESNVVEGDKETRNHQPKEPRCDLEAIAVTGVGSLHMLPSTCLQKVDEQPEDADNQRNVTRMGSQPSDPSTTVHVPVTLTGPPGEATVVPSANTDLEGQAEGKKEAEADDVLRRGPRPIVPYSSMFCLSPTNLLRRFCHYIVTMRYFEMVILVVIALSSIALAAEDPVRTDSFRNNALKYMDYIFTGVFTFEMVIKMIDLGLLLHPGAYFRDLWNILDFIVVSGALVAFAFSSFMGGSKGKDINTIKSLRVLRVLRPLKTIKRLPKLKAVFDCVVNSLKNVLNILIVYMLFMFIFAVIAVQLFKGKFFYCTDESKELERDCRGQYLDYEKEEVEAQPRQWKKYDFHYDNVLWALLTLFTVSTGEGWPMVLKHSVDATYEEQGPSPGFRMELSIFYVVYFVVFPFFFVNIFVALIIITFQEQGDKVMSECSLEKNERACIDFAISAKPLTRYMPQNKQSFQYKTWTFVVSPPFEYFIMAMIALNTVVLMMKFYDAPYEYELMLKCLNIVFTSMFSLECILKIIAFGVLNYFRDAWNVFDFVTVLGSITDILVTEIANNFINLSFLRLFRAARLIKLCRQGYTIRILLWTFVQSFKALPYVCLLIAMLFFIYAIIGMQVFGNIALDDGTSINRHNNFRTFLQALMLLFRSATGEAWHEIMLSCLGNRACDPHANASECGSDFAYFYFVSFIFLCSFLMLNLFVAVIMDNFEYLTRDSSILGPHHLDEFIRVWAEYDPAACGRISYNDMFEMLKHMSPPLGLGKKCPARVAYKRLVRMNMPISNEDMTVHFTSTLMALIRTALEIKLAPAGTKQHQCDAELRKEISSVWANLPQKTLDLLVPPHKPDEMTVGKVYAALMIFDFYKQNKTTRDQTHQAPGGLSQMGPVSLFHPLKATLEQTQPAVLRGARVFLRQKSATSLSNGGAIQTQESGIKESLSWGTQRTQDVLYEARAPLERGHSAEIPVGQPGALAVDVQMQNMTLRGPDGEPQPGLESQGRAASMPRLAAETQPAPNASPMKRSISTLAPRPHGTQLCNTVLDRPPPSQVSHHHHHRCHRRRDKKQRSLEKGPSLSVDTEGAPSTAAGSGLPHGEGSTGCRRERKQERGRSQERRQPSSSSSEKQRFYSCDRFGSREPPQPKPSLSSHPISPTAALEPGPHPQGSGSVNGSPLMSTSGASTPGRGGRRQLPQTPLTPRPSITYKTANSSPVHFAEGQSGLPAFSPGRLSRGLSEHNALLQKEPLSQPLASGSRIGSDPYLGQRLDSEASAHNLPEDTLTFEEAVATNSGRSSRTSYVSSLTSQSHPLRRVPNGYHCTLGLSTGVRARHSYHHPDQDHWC
Chain of Cannabinoid receptor 1 (P21554 whole entry): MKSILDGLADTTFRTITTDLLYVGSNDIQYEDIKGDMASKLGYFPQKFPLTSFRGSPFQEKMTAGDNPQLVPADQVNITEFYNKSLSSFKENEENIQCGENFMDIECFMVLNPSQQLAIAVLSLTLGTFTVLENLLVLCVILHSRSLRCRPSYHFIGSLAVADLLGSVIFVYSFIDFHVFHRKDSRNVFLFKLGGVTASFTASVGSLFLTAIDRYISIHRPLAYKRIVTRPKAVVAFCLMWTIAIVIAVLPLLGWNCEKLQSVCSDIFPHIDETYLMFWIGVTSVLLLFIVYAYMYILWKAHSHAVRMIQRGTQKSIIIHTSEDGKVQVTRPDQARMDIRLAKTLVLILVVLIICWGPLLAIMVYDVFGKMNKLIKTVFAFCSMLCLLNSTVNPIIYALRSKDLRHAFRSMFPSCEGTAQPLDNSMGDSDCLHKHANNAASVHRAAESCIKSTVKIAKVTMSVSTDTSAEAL

Compound	AC50 [1]	AC50 (Cannabinoid receptor 1)	AC50 [2]	AC50 (Estrogen receptor beta)	AC50 (Histamine H2 receptor)	AC50 [3]	AC50 [4]	AC50 [5]	AC50 [6]	AC50 (Androgen receptor [7])	AC50 [8]	AC50 (Mu-type opioid receptor)	AC50 [9]	AC50 (Androgen receptor [10])
CCOC(=O)C1=C(C)NC(C)=C(C(=O)OC)C1c1cccc(Cl)c1Cl (stereo unspecified) [FELODIPINE]	> 10 µM	13.4 µM	> 30 µM	> 30 µM	> 10 µM	> 10 µM	> 30 µM	> 10 µM	> 10 µM					
TEPRENONE					> 10 µM	> 30 µM		> 10 µM		> 30 µM				
CCC(=O)[C@@]1(C)[C@H](C)C[C@H]2[C@@H]3CCC4=CC(=O)C=C[C@]4(C)[C@H]3[C@@H](O)C[C@@]21C [RIMEXOLONE]		6.91 µM			> 10 µM	> 10 µM				> 30 µM	> 10 µM	> 30 µM		
CCN(CC)C(C)C(=O)c1ccccc1 (stereo unspecified) [DIETHYLPROPION]	> 10 µM	> 10 µM	> 30 µM		> 10 µM	> 10 µM	> 30 µM	> 10 µM	> 10 µM	> 30 µM			> 30 µM	
OCC(CO)N[C@H]1C[C@](O)(CO)[C@@H](O)[C@H](O)[C@H]1O [VOGLIBOSE]		> 30 µM			> 30 µM	> 30 µM				> 30 µM	> 30 µM	> 30 µM		
COC(=O)c1ccc2c(c1)NC(=O)/C2=C(\Nc1ccc(N(C)C(=O)CN2CCN(C)CC2)cc1)c1ccccc1 [NINTEDANIB]					> 30 µM	> 30 µM					> 30 µM	> 30 µM	> 30 µM	> 30 µM
CC(NC(C)(C)C)C(=O)c1cccc(Cl)c1 (stereo unspecified) [BUPROPION]	> 10 µM	> 10 µM	> 30 µM	> 30 µM	> 10 µM	> 10 µM	> 30 µM	> 10 µM	> 10 µM				> 30 µM	
Cc1nnc2n1-c1ccc(Cl)cc1C(c1ccccc1)=NC2 [ALPRAZOLAM]	> 10 µM	3.35 µM	> 30 µM	> 30 µM	> 10 µM	> 10 µM	> 30 µM	> 10 µM	> 10 µM				> 30 µM	
OCCN(CCO)c1nc(N2CCCCC2)c2nc(N(CCO)CCO)nc(N3CCCCC3)c2n1 [DIPYRIDAMOLE]		> 30 µM			> 30 µM	> 30 µM	> 30 µM			> 30 µM		> 30 µM		
Cc1cnc(Nc2ccc(OCCN3CCCC3)cc2)nc1Nc1cccc(S(=O)(=O)NC(C)(C)C)c1 [FEDRATINIB]		> 10 µM			> 10 µM			> 10 µM		> 30 µM				
CCN(CC)CC(=O)Nc1c(C)cccc1C [LIDOCAINE]			> 30 µM	> 30 µM			> 30 µM							
OCC(O)COc1ccc(Cl)cc1 (stereo unspecified)		> 10 µM			> 10 µM	> 10 µM				> 10 µM	> 10 µM			
CN1CCC(=C2c3ccccc3CC(=O)c3sccc32)CC1 [KETOTIFEN]		> 10 µM			> 10 µM	> 10 µM			0.432 µM			> 30 µM	> 30 µM	
C[C@@H](Cc1ccccc1)N(C)Cc1ccccc1 [BENZPHETAMINE]		> 10 µM			> 10 µM	> 10 µM				> 10 µM	22 µM			
CC(C(=O)O)c1ccc(C(=O)c2ccccc2)s1 (stereo unspecified) [TIAPROFENIC ACID]		> 10 µM			> 10 µM	> 10 µM				> 10 µM	> 30 µM		> 30 µM	
CN1C2CCCC1CC(NC(=O)c1nn(C)c3ccccc13)C2 (stereo unspecified) [GRANISETRON]	> 10 µM	> 10 µM	> 30 µM	> 30 µM	> 10 µM	> 10 µM	> 30 µM	> 10 µM	> 10 µM				> 30 µM	
CC(C)CN(C[C@@H](O)[C@H](Cc1ccccc1)NC(=O)O[C@H]1CCOC1)S(=O)(=O)c1ccc(N)cc1		11.4 µM			> 10 µM	> 10 µM				> 10 µM				
CN(C)CCOC(=O)C(c1ccccc1)C1(O)CCCC1 (stereo unspecified) [CYCLOPENTOLATE]		> 10 µM			> 30 µM	> 10 µM			0.624 µM		> 10 µM	> 30 µM		
Nc1cc(N2CCCCC2)nc(N)[n+]1[O-] [MINOXIDIL]		> 10 µM			> 30 µM	> 30 µM		> 10 µM		> 30 µM			> 30 µM	
CCOC(=O)O[C@]1(C(=O)COC(=O)CC)CC[C@H]2[C@@H]3CCC4=CC(=O)C=C[C@]4(C)[C@H]3[C@@H](O)C[C@@]21C [PREDNICARBATE]		> 10 µM			> 10 µM	> 10 µM				0.71 µM	> 10 µM	> 30 µM		
COc1ccc2c3c1O[C@H]1C(=O)CC[C@H]4[C@@H](C2)N(C)CC[C@]314 [HYDROCODONE]	> 10 µM		> 30 µM	> 30 µM	> 10 µM	> 10 µM	> 30 µM	> 10 µM	> 10 µM		> 30 µM		> 30 µM	
CC1=C(CC(=O)O)c2cc(F)ccc2/C1=C\c1ccc([S+](C)[O-])cc1 (stereo unspecified)	> 10 µM		> 30 µM	> 30 µM	> 10 µM	> 10 µM	> 30 µM	> 10 µM	> 10 µM					
C=C(c1ccccc1OCc1cccc(Cl)c1)n1ccnc1 [CROCONAZOLE]					> 10 µM	> 10 µM		> 10 µM		> 30 µM				
CN1CCCN=C1/C=C/c1cccc(O)c1 [OXANTEL]					> 30 µM	> 30 µM					> 30 µM	> 30 µM	> 30 µM	26 µM
